Measured values: article PMC9238401, “Peptide Conjugates Derived from flg15, Pep13, and PIP1 That Are Active against Plant-Pathogenic Bacteria and Trigger Plant Defense Responses” (Applied and Environmental Microbiology, 2022)
Entries after “also recorded” stand apart in the source; their conditions may differ. Marks after values point to notes of the source that are not given here. Non-standard residues stand in square brackets, D forms with d. Residues, ends and D or L forms follow the SMILES beside them. *: point of attachment. Butyryl = CCCC(=O)*

Assays:
[1] = test system: X. axonopodis pv. vesicatoria strain 206 on tomato plants (cv. Rio grande); assay: Bacterial spot of tomato, whole-plant infection assay; type: in vivo; settings: peptide sprayed at 125 μM 24 h before inoculation with 10^8 CFU/mL, severity 13 days after inoculation, two independent experiments, three replicates of three plants, Tukey's test P < 0.05
Protocol: The effect of the peptide conjugates flg15-BP387, flg15-BP475, and PIP1-BP475 and the monomers flg15 and PIP1 to reduce bacterial spot infection, caused by X. axonopodis pv. vesicatoria, was tested in potted tomato plant assays (Fig. 4).
FIG 4 Effect of the peptides on the bacterial spot of tomato plant severity. Two independent experiments were performed. Disease severity was evaluated in tomato plants 13 days after pathogen inoculation. A nontreated control (NTC) and a treatment with copper oxychloride were included as references. Values correspond to the mean disease severity of three replicates of three plants per each treatment, and error bars represent the confidence interval (α = 0.05). […] The photographs show the symptoms observed in nontreated (A) and flg15-BP475-treated (B) plants.
The efficacy of peptides in bacterial spot of tomato suppression was determined using whole-plant infection assays with tomato plants (cv. Rio grande) inoculated with X. axonopodis pv. vesicatoria strain 206. Tomato plants (4 weeks old) were sprayed with a hand sprayer (Herkules; Nuair, Robassomero, Italy) with 6 mL of an aqueous suspension of flg15-BP387, flg15-BP475, PIP1-BP475, flg15, and PIP1 at 125 μM. An NTC was included by spraying plants with water. A treatment with 70% copper oxychloride at 2 g/L (Cuprocol; Syngenta, Spain) was also included as a positive control. After 24 h, treated plants were spray-inoculated until the runoff point (6 mL) with a suspension of X. axonopodis pv. vesicatoria at 10^8 CFU/mL mixed with diatomaceous earth at 1 mg/mL. Plants were incubated under controlled greenhouse conditions (25 ± 2°C, 16 h light; 15 ± 2°C, 8 h dark; 60% relative humidity). The experimental design consisted of three replicates of three plants per treatment. Two independent experiments were performed. Severity of infections was determined per each replicate after 13 days of pathogen inoculation ([71]). A severity index, ranging from 0 to 4 (0, no symptoms; 1, necrosis/lesions up to 25% of the leaf surface; 2, necrosis/lesions on 25 to 50% of the leaf surface; 3, severe necrosis/lesions on 50 to 75% of the leaf surface; and 4, severe necrosis/lesions on >75% of the leaf surface), was determined for each of the leaves (with 4 to 5 leaflets) of a plant, and it was used to calculate the disease severity index per plant according to the formula
where S is the severity of the infections per plant, Si is the severity index for each leaf, and n is the number of leaves measured, which is multiplied by the maximum severity index (i.e., 4). Then, the mean of the severity index of the three plants of each replicate was calculated. The effect of peptide treatments on plant material infection was determined using analysis of variance (ANOVA). […]

[2] = test system: tomato plants cv. Rio Grande, defense-related genes; assay: Induction of defense gene expression in tomato plants (RT-qPCR); type: in vivo; settings: peptide sprayed at 125 μM, leaves 24 h after application, ΔΔCT vs actin and nontreated control; for PR1 expression, fold induction: above 2 = overexpression
Protocol: The capacity to induce the expression of genes related to defense response in tomato plants was evaluated for the peptide conjugates flg15-BP387, flg15-BP475, and PIP1-BP475 and the monomers flg15 and PIP1 (Table 2).
Seeds of tomato cv. Rio Grande plants were sown in hydroponic seed plugs (rockwool) and germinated and grown in an environmentally controlled greenhouse at 25 ± 2°C (day) and 18 ± 2°C (night), with a minimum relative humidity of 60% and with a photoperiod of 16 h light and 8 h dark. Then, 2-week-old seedlings (two cotyledons) were transplanted into rockwool plugs (7.5 × 7.5 × 6.5 cm; Gordan Iberica, Spain). Tomato plants were maintained until use under the same environmental conditions.
The 2-week-old tomato plants cv. Rio Grande were sprayed with aqueous solutions of the peptides flg15-BP387, flg15-BP475, PIP1-BP475, flg15, and PIP1 at 125 μM until the runoff point. […] Water-sprayed plants were used as nontreated controls (NTC). The experimental design consisted of three replicates of three plants per treatment. Leaf samples were collected 24 h after product application and processed to extract RNA for reverse transcriptase quantitative PCR (RT-qPCR) assays. Plant material was roughly ground in liquid nitrogen and was transferred into tubes with two glass beads. Afterward, the frozen samples were finely ground using the TissueLyser II system (Qiagen, Hilden, Germany) at a frequency of 30 Hz for 1 min. Total RNA was extracted from leaves (100 mg) using PureLink plant RNA reagent (Invitrogen, Life Technologies) according to the manufacturer’s manual. The RNA was solubilized in RNase-free water (Ambion, Thermo Fisher Scientific, USA) and was routinely subjected to DNase treatment (Ambion Turbo DNA-free; Invitrogen Life Technologies, Carlsbad, CA, USA) to remove any contaminant DNA. In each step, the RNA was quantified using a NanoDrop ND-1000 spectrophotometer (Nanodrop Technologies, Wilmington, DE, USA). First-strand cDNA was generated from leaf RNA using reverse transcriptase (high-capacity cDNA reverse transcription kit; Applied Biosystems, Foster City, CA, USA) according to the manufacturer’s manual.
To test gene defense induction in the treated tomato plants, a quantitative PCR (qPCR) assay was performed. qPCR was carried out in a fluorometric thermal cycler (7500 Fast real-time PCR system; Applied Biosystems, USA) by using a Mix SYBR green PCR master mix (Applied Biosystems, Foster City, CA, USA) as previously described ([49]). Melting curve analysis was performed after each amplification to verify amplification specificity. A constitutive gene (actin) was used as a reference control ([52]), and the following genes implicated in plant defense response were analyzed using the previously described primers: pathogenesis-related protein-1 (PR1) and chitinase A (PR3) ([81]), subtilisin-like protease P69G (PR7), peroxidase 1 (PR9), WRKY3 transcription factor (WRKY3), hairpin-induced protein-like (Harp), blue-copper-binding protein gene (BCB) and ethylene responsive transcription factor (ERF) ([71]), and basic β-1,3-endoglucanase (GluB) ([52]). The primer concentration was 100 nM for all the genes except for the actin gene, for which the concentration was 300 nM. A calibration curve was prepared by cloning the corresponding target sequence in the pSpark cloning vector (Canvax, Córdoba, Spain), which was used to transform Escherichia coli DH5α. Plasmids were purified (Qiagen Iberia, S.L., Madrid, Spain), plasmid copies were quantified, and decimal dilutions were prepared.

Compound	Effect on severity of bacterial spot of tomato [1]	BCB expression, fold induction [2]	ERF expression, fold induction [2]	GluB expression, fold induction [2]	Harp expression, fold induction [2]	PR3 expression, fold induction [2]	PR7 expression, fold induction [2]	PR9 expression, fold induction [2]	WRKY3 expression, fold induction [2] [fold]	PR1 expression, fold induction [2]
YGIHTH-NH2 [PIP1, plant defense elicitor peptide identified through combinatorial chemistry; monomer]	only reduced the severity of the disease in one of the experiments	1.99 ± 0.40^d fold	0.58 ± 0.11^d fold	0.96 ± 0.32 fold	1.97 ± 0.45^d fold	3.59 ± 1.35^d fold	1.13 ± 0.26 fold	1.23 ± 0.18 fold	0.94 ± 0.35	1.00 ± 0.39 fold
RINSAKDDAAGLQIA-OH [flg15, plant defense elicitor peptide, 15 amino acids of the N-terminal conserved domain of bacterial flagellin; monomer]	significantly reduced the severity of bacterial spot of tomato compared to the nontreated control in both experiments	8.14 ± 2.48^d fold	1.09 ± 0.44 fold	6.05 ± 2.40^d fold	4.28 ± 1.49^d fold	17.68 ± 4.18^d fold	9.26 ± 2.06^d fold	6.24 ± 2.25^d fold	1.41 ± 0.84	8.32 ± 3.35^d fold
CCCC(=O)NCCCC[C@H](NC(=O)[C@H](CCCCN)NC(=O)[C@H](CC(C)C)NC(=O)[C@@H](NC(=O)[C@H](CCCCN)NC(=O)[C@H](CCCCN)NC(=O)[C@@H](Cc1ccccc1)NC(=O)[C@H](CC(C)C)NC(=O)[C@H](CCCCN)NC(=O)[C@H](CCCCN)NC(=O)[C@H](Cc1c[nH]cn1)NC(=O)[C@@H](NC(=O)[C@H](Cc1c[nH]cn1)NC(=O)[C@@H](NC(=O)CNC(=O)[C@H](Cc1ccc(O)cc1)NC(C)=O)[C@@H](C)CC)[C@@H](C)O)[C@@H](C)CC)C(=O)N[C@@H](CC(C)C)C(N)=O [PIP1-BP475] (Ac-YGIHTHKKL[dF]KKILKK(Butyryl)L-NH2)	showed the same efficacy in reducing the disease as their respective monomers flg15 and PIP1, except for PIP1-BP475 in one of the experiments	2.07 ± 0.11^d fold	0.81 ± 0.30 fold	0.80 ± 0.07 fold	2.25 ± 0.12^d fold	7.36 ± 1.05^d fold	1.29 ± 0.19^d fold	1.99 ± 0.11^d fold	1.46 ± 0.11	0.64 ± 0.36 fold
CCCC(=O)NCCCC[C@H](NC(=O)[C@H](CCCCN)NC(=O)[C@H](CC(C)C)NC(=O)[C@@H](NC(=O)[C@H](CCCCN)NC(=O)[C@H](CCCCN)NC(=O)[C@@H](Cc1ccccc1)NC(=O)[C@H](CC(C)C)NC(=O)[C@H](CCCCN)NC(=O)[C@H](CCCCN)NC(=O)[C@H](C)NC(=O)[C@@H](NC(=O)[C@H](CCC(N)=O)NC(=O)[C@H](CC(C)C)NC(=O)CNC(=O)[C@H](C)NC(=O)[C@H](C)NC(=O)[C@H](CC(=O)O)NC(=O)[C@H](CC(=O)O)NC(=O)[C@H](CCCCN)NC(=O)[C@H](C)NC(=O)[C@H](CO)NC(=O)[C@H](CC(N)=O)NC(=O)[C@@H](NC(=O)[C@H](CCCNC(=N)N)NC(C)=O)[C@@H](C)CC)[C@@H](C)CC)[C@@H](C)CC)C(=O)N[C@@H](CC(C)C)C(N)=O [flg15-BP475] (Ac-RINSAKDDAAGLQIAKKL[dF]KKILKK(Butyryl)L-NH2)	decreased the severity of the disease compared to treatment with flg15, this reduction being significant in one of the experiments; also recorded: showed the same or more efficacy in reducing disease infection than treatment with copper oxychloride	5.84 ± 1.38^d fold	0.67 ± 0.15^d fold	4.31 ± 0.82^d fold	3.68 ± 0.91^d fold	10.96 ± 1.85^d fold	5.82 ± 0.78^d fold	3.83 ± 0.25^d fold	1.16 ± 0.26	2.02 ± 0.07^d fold
